Measured values reported in patent US20060199853A1, “Analogs of 4-hydroxyisoleucine and uses thereof” (priority 2005, published 2006).

Key:
INS-1 cells = assay: Glucose-dependent stimulation of insulin secretion in INS-1 cells; format: cell-based; conditions: for insulin stimulating activity: 0.5 mM compound, 4.5 mM glucose; for stimulation of insulin secretion: FIGS. 17A-17E, single concentration of 0.5 mM, 4.5 or 5 mM glucose
Protocol: Selected analogs according to the invention were tested in a blinded fashion for insulinotropic effect on INS-1 cells. Briefly, the cells were plated at a density of 2×10^5 in 12 well plates and incubated for 2 days in RPMI with 10% fetal calf serum and 11 mM glucose. The medium was removed on the third day post-plating and replaced with RPMI containing 3 mM glucose with 10% fetal calf serum. The cells were incubated for an additional 24 hours. On the fourth day post-plating, the medium was removed and replaced with Krebs-Ringer bicarbonate buffer containing 2 mM glucose. The cells were incubated for 30 min and the buffer was removed and replaced with Krebs-Ringer bicarbonate buffer with 4.5 mM glucose containing the compounds to be tested at a concentration of 0.5 mM. The cells were incubated for 1 hour. Basal insulin secretion was determined by incubating the cells in the presence of buffer with 2 mM glucose. The presence of glucose at 4.5 and 10 mM stimulated insulin secretion served as the reference control and positive control, respectively.
Selected analogs according to the invention were screened for insulinotropic effect on INS-1 pancreatic beta cells according to the method described in Example 3.

[1] = tested on: differentiated 3T3-L1 adipocyte cells; assay: Stimulation of glucose uptake (3H-deoxy-glucose) by differentiated 3T3-L1 adipocyte cells; format: cell-based; conditions: insulin at 10^-7 M; for stimulation of glucose uptake beyond that caused by insulin alone: FIG. 15B, 0.5 mM; for stimulation of glucose uptake: FIG. 15A, compounds at three concentrations, last 30 min of starvation
Protocol: Selected analogs according to the invention were tested for their effect on the uptake of ^3H-deoxy-glucose by differentiated 3T3-L1 adipocyte cells. Briefly, 3T3-L1 adipocyte cells (ATCC; Cl-173) were cultured in 12 well tissue culture plates for 3 days in order to reach confluence (Lakshmanan et al., Diabetes Mellitus: Methods and Protocols, Saire Ozcna, Ed., Humana Press Inc., Tonowa, N.J. 97-103, 2003). The culture medium was removed and replaced with differentiation medium (Green and Meuth, Cell 3:127-133, 1974; Madsen et al., Biochem. J. 375:539-549, 2003) and then the cells were incubated for an additional 9 days. The state of differentiation was confirmed by visual examination. Cell starvation was conducted for 5 hours by replacing the differentiation medium with one lacking fetal calf serum. During the last 30 minutes of the starvation period, the cells were exposed to compounds to be assayed at a range of concentrations. As a positive control, cells were exposed to insulin (0.0167 U/mL; Sigma; Cat. No. 15534) for the last 30 minutes of the starvation period Cells were exposed to 0.5 mM isoleucine are used as a control for background uptake. All treatments were performed in triplicate. Cells were washed, then fresh medium containing 16 μM ^3H-Deoxy-D-glucose (0.5 μCi/mL) and 10 μM 2-Deoxy-D-glucose was added and the cells were incubated for 10 min. Glucose uptake was stopped by washing the cells with ice cold PBS. The cells were lysed and specific activity in the lysate was determined relative to background uptake of ^3H-deoxy-glucose. Results were standardized on the basis of protein content per well.
FIG. 1 5B is another figure showing insulin stimulation of glucose uptake by insulin at 10^−7M, and by the analogs of the invention.

[2] = tested on: Diet Induced Obesity (DIO)-C57BL/6 Mice; assay: Glycemic response to an OGTT after a single oral administration in DIO-C57BL/6 mice; format: in vivo; conditions: FIGS. 18A, 18B; for glycemic response following OGTT (delta glycemia AUC): 100 mg/kg, OGTT 10 minutes post-administration; for efficacy relative to the other compounds tested: OGTT
Protocol: Studies were conducted to evaluate the effect of acute oral administration of selected analogs according to the invention on the glycemic response of Diet-Induced Obesity (DIO)-C57BI/6 mice following an Oral Glucose Tolerance Test (OGTT).
In the first study, a total of 40 mice were used. The animals were randomized according to their basal glycemia values following a 5±0.5 hours fasting period and then distributed into 5 groups (1 control and 4 treated groups). Each group was composed of 8 animals. On the day of treatment, test articles were dissolved in reverse osmosis water and kept on ice. Control group (Group 1) received sterile water and Group 2 to 5 received 100 mg/kg of Compound #14a, Compound #128, Compound #133 and Compound #13e, respectively.
On the day of experimentation, animals were fasted ˜5 hours prior to the OGTT and then OGTT was performed at 10 minutes post-test article administration, by oral gavage administration of 40% glucose solution. Whole blood glucose levels were monitored using a hand-held glucometer prior to OGTT and for up to 2 hours post-lucose challenge.
In a separate experiment, the effect of acute oral administration of another analog, Compound #85(101a), on the glycemic response of DIO-mice was evaluated using the same experimental design.
FIGS. 18A and 18B show the glycemic response of mice following an OGTT performed after a single oral administration of Compounds #14a, #128, #133, #13e, and #85(101a). For both figures, delta glycemia values were calculated by substraction of pre-OGTT glycemia value. AUC values were obtained from the delta glycemia curves. Values represent the mean±SEM. N=8 animals/group. Ctl=Control DIO.*p<0.05; . . . p<0.001.

[3] = tested on: Diet Induced Obesity (DIO)-C57BL/6 Mice; assay: Glycemic response to an OGTT during chronic oral administration in DIO-C57BL/6 mice; format: in vivo; conditions: for time of maximal effect on control of glycemia: chronic oral administration twice daily
Protocol: Studies were conducted to evaluate the effect of a chronic oral administration of selected analogs according to the invention on the glycemic response of Diet-induced Obesity (DIO)-C57BI/6 mice following an Oral Glucose Tolerance Test (OGTT) performed weekly.
In a first study, a total of 56 animals were used. The animals were distributed into 7 groups (6 treated and 1 high fat diet control groups). Each group was composed of 8 animals. The mice were randomized according to basal glycemia values following a 5±0.5 hours fasting period. Compound #14a and #133 were dissolved in reverse osmosis water while Compound #13e was dissolved in 200 mM Bicarbonate/0.1% Tween-20 buffer, pH=9.0. Compounds #14a and #133 were kept at 4° C (administration to groups 2 & 3, and 4 & 5, respectively) while Compound #13e was freshly prepared daily. Control animals received sterile saline, twice daily (Groups 1 […]). Mice from groups 2 and 3 were treated twice daily with Compound #14a at 50 and 100 mg/kg, respectively. Animals from groups 4 and 5 received twice daily 50 and 100 mg/kg of Compound #133, respectively. Mice from groups 6 and 7 received 25 and 50 mg/kg of Compound #13e, twice daily, respectively.
On day 0, 7, 14, and 21, animals fasted for about 5 hours were challenged with an Oral Glucose Tolerance Test (OGTT) at 5 hours post-AM test article administration. Whole blood glucose levels were monitored using a hand-held glucometer prior to OGTT and for up to 2 hours post-glucose challenge. In a separate experiment, the same experimental design was used to evaluate the effect of chronic administration of Compound #85(101a) on the glycemic response of DIO-C57BI/6 mice following an Oral Glucose Tolerance Test (OGTT) performed after 7 days of treatment.
FIGS. 19A, 19B, 19C, and 19D are bar graphs showing glycemic response of mice following an OGTT performed after 7 days (FIGS. 19A and 19D), 14 days (FIG. 19B) or 21 days (FIG. 19C) of treatment after chronic oral administration of selected analogs according to the invention. For each figure, delta glycemia values were calculated by substraction of pre-OGTT glycemia value. AUC values were obtained from the delta glycemia curves. Values represent the mean±SEM. N=8 animals/group. Ctl=Control DIO.*p<0.05.

Compound | stimulation of insulin secretion (INS-1 cells) | glycemic response following OGTT (delta glycemia AUC) [2] | stimulation of glucose uptake [1] | further results
N[C@H](C(=O)O)[C@@H]1CCCC[C@H]1O [#13e] | more effective to stimulate insulin secretion than parent compound #14a | significant effect on the glycemic control of DIO-mice | – | insulin stimulating activity (INS-1 cells; FIG. 16A, 1 hour): most effective; insulin stimulating activity (INS-1 cells; FIG. 16B): most effective; stimulation of glucose uptake beyond that caused by insulin alone [1]: greater than the stimulation caused by the parent compound; efficacy relative to the other compounds tested [2]: most efficacious; glycemia increase following OGTT ([3]; 25 and 50 mg/kg twice daily, half the dose of the other treated groups): significantly reduced the glycemia increase in DIO-mice; hyperglycaemic response following OGTT ([3]; 25 and 50 mg/kg twice daily, Day 21, FIG. 19C): reduced significantly the hyperglycaemic response of animals; time of maximal effect on control of glycemia [3]: 14 days post-initiation of treatment
C[C@@H]([C@H](C)O)[C@H](N)C(=O)O [#14a] | significant insulin stimulating activity in all the experiments | significant effect on the glycemic control of DIO-mice | stimulated glucose uptake at all three concentrations tested | insulin stimulating activity (INS-1 cells; FIG. 16A, 1 hour): significant insulin stimulating activity; stimulation of glucose uptake beyond that caused by insulin alone [1]: limited stimulation of glucose uptake beyond that caused by insulin alone; time of maximal effect on control of glycemia [3]: 14 days post-initiation of treatment
N[C@H](C(=O)O)[C@H]1CCCC[C@H]1O [#15e] | more effective to stimulate insulin secretion than parent compound #14a | – | – | –
CC1C(O)CN[C@@H]1C(=O)O (some centres unmarked) [#22] | more effective to stimulate insulin secretion than parent compound #14a | – | – | –
CC(O)C1C(O)CN[C@@H]1C(=O)O (some centres unmarked) [#33] | – | – | at least equivalent activity to the parent compound | –
NC(CC(O)C1CCCCC1)C(=O)O (centres unmarked) [#59] | more effective to stimulate insulin secretion than parent compound #14a | – | – | –
NC(CC(O)c1ccccc1)C(=O)O (centres unmarked) [#61] | more effective to stimulate insulin secretion than parent compound #14a | – | – | –
C[C@H]([C@H](N)C(=O)O)C(C)(C)O [#85(101a)] | – | significant effect on the glycemic control of DIO-mice | – | efficacy relative to the other compounds tested [2]: most efficacious; glycemic control following OGTT ([3]; 7 consecutive days of administration, statistically significant vs control, FIG. 19D): improved the glycemic control of DIO-mice
C=CC(C)(C)C(N)C(=O)O (centres unmarked) [#102b] | – | – | at least equivalent activity to the parent compound | –
CC(=O)N[C@@H]1C(=O)O[C@@H](C)[C@@H]1C [#104] | more effective to stimulate insulin secretion than parent compound #14a | – | – | –
CC(C)[C@H](NC[C@@H](C)O)C(=O)O [#133] | – | significant effect on the glycemic control of DIO-mice | – | time of maximal effect on control of glycemia [3]: 14 days post-initiation of treatment
O=C(O)[C@H]1C[C@@H](O)CN1 [#201] | more effective to stimulate insulin secretion than parent compound #14a | – | – | –
insulin [reference compound] | – | – | strongly promoted glucose uptake | –
